# Measured values: ChEMBL document CHEMBL1201862, “PubChem BioAssay data set” (2004)
#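 A five-concentration, 48-hour dose response in 96-well plates underlies each endpoint, interpolated linearly between surrounding concentrations. GI50 = concentration required for 50% inhibition of growth.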 Activity calls are given as the source filed them. Cut-off read from the data, not from the text of the source: active = GI50 up to about 1.1 µM and inactive = higher.
# Experiments:
# Test in all cases: growth of human tumour cells (NCI), 48 h
# PC-3 = test system: PC-3
# LOX IMVI = test system: LOX IMVI
# SR = test system: SR
# K562 = test system: K562
# HCT-116 = test system: HCT-116
# SF-539 = test system: SF-539
# HL-60 = test system: HL-60
# SK-MEL-5 = test system: SK-MEL-5
# NCI-H23 = test system: NCI-H23
# BT-549 = test system: BT-549
# MDA-MB-231 = test system: MDA-MB-231
# MDA-N = test system: MDA-N
# CCRF-CEM = test system: CCRF-CEM
# OVCAR-5 = test system: OVCAR-5
# SK-MEL-28 = test system: SK-MEL-28
# M14 = test system: M14
# HOP-62 = test system: HOP-62
# OVCAR-4 = test system: OVCAR-4
# TK-10 = test system: TK-10
# SNB-75 = test system: SNB-75
# T47D = test system: T47D
# SW-620 = test system: SW-620
# OVCAR-3 = test system: OVCAR-3
# RXF 393 = test system: RXF 393
# EKVX = test system: EKVX
# OVCAR-8 = test system: OVCAR-8
# CAKI-1 = test system: CAKI-1
# UACC-257 = test system: UACC-257
# UACC-62 = test system: UACC-62
# NCI-H522 = test system: NCI-H522
# MOLT-4 = test system: MOLT-4
# Malme-3M = test system: Malme-3M
# KM12 = test system: KM12
# HOP-92 = test system: HOP-92
# RPMI-8226 = test system: RPMI-8226
# SNB-19 = test system: SNB-19
# COLO 205 = test system: COLO 205
# HCC 2998 = test system: HCC 2998
# NCI-H226 = test system: NCI-H226
# SF-295 = test system: SF-295
# IGROV-1 = test system: IGROV-1
# NCI/ADR-RES = test system: NCI/ADR-RES
# Hs-578T = test system: Hs-578T
# SK-MEL-2 = test system: SK-MEL-2
# A549 = test system: A549
# SK-OV-3 = test system: SK-OV-3
# HCT-15 = test system: HCT-15
# SN12C = test system: SN12C
# A498 = test system: A498
# HT-29 = test system: HT-29
# SF-268 = test system: SF-268
# ACHN = test system: ACHN
# NCI-H460 = test system: NCI-H460
# 786-0 = test system: 786-0
# U-251 = test system: U-251
# MCF7 = test system: MCF7
# DU-145 = test system: DU-145
# MDA-MB-435 = test system: MDA-MB-435
# UO-31 = test system: UO-31
smiles,measurement,setting,value
C=C1C(=O)OC2CC(C)C(/C=C/C(C)=O)=CCC12 (configuration not stated),GI50,PC-3,> 100 µM (inactive)
same,GI50,LOX IMVI,> 100 µM (inactive)
same,GI50,SR,57.9 µM (inactive)
same,GI50,K562,58.7 µM (inactive)
same,GI50,HCT-116,43.3 µM (inactive)
same,GI50,SF-539,> 100 µM (inactive)
same,GI50,HL-60,33.1 µM (inactive)
same,GI50,SK-MEL-5,71.8 µM (inactive)
same,GI50,NCI-H23,> 100 µM (inactive)
same,GI50,BT-549,> 100 µM (inactive)
same,GI50,MDA-MB-231,> 100 µM (inactive)
same,GI50,MDA-N,> 100 µM (inactive)
same,GI50,CCRF-CEM,40 µM (inactive)
same,GI50,OVCAR-5,> 100 µM (inactive)
same,GI50,SK-MEL-28,> 100 µM (inactive)
same,GI50,M14,> 100 µM (inactive)
same,GI50,HOP-62,> 100 µM (inactive)
same,GI50,OVCAR-4,> 100 µM (inactive)
same,GI50,TK-10,> 100 µM (inactive)
same,GI50,SNB-75,2.99 µM (inactive)
same,GI50,T47D,> 100 µM (inactive)
same,GI50,SW-620,61.8 µM (inactive)
same,GI50,OVCAR-3,> 100 µM (inactive)
same,GI50,RXF 393,> 100 µM (inactive)
same,GI50,EKVX,> 100 µM (inactive)
same,GI50,OVCAR-8,> 100 µM (inactive)
same,GI50,CAKI-1,> 100 µM (inactive)
same,GI50,UACC-257,> 100 µM (inactive)
same,GI50,UACC-62,> 100 µM (inactive)
same,GI50,NCI-H522,29.8 µM (inactive)
same,GI50,MOLT-4,83 µM (inactive)
same,GI50,Malme-3M,10.7 µM (inactive)
same,GI50,KM12,> 100 µM (inactive)
same,GI50,HOP-92,> 100 µM (inactive)
same,GI50,RPMI-8226,86.1 µM (inactive)
same,GI50,SNB-19,> 100 µM (inactive)
same,GI50,COLO 205,90.6 µM (inactive)
same,GI50,HCC 2998,> 100 µM (inactive)
same,GI50,NCI-H226,> 100 µM (inactive)
same,GI50,SF-295,> 100 µM (inactive)
same,GI50,IGROV-1,> 100 µM (inactive)
same,GI50,NCI/ADR-RES,> 100 µM (inactive)
same,GI50,Hs-578T,> 100 µM (inactive)
same,GI50,SK-MEL-2,> 100 µM (inactive)
same,GI50,A549,> 100 µM (inactive)
same,GI50,SK-OV-3,> 100 µM (inactive)
same,GI50,HCT-15,> 100 µM
same,GI50,SN12C,> 100 µM (inactive)
same,GI50,A498,> 100 µM (inactive)
same,GI50,HT-29,> 100 µM (inactive)
same,GI50,SF-268,> 100 µM (inactive)
same,GI50,ACHN,> 100 µM (inactive)
same,GI50,NCI-H460,> 100 µM (inactive)
same,GI50,786-0,26.4 µM (inactive)
same,GI50,U-251,> 100 µM (inactive)
same,GI50,MCF7,> 100 µM (inactive)
same,GI50,DU-145,> 100 µM (inactive)
same,GI50,MDA-MB-435,> 100 µM (inactive)
CCSc1nnc(Sc2c3ccccc3nc3ccccc23)s1,GI50,PC-3,20.3 µM (inactive)
same,GI50,LOX IMVI,6.7 µM (inactive)
same,GI50,SR,3.19 µM (inactive)
same,GI50,K562,3.8 µM (inactive)
same,GI50,HCT-116,7.41 µM (inactive)
same,GI50,SF-539,7.94 µM (inactive)
same,GI50,HL-60,0.692 µM (active)
same,GI50,SK-MEL-5,15.6 µM (inactive)
same,GI50,NCI-H23,20.2 µM (inactive)
same,GI50,BT-549,17.6 µM (inactive)
same,GI50,MDA-MB-231,18.8 µM (inactive)
same,GI50,MDA-N,6.68 µM (inactive)
same,GI50,CCRF-CEM,2.64 µM (inactive)
same,GI50,OVCAR-5,20 µM (inactive)
same,GI50,SK-MEL-28,17.5 µM (inactive)
same,GI50,M14,11.5 µM (inactive)
same,GI50,HOP-62,> 58.6 µM (inactive)
same,GI50,OVCAR-4,16.9 µM (inactive)
same,GI50,TK-10,6.18 µM (inactive)
same,GI50,UO-31,10.7 µM (inactive)
same,GI50,SNB-75,35.3 µM (inactive)
same,GI50,T47D,4.22 µM (inactive)
same,GI50,SW-620,5.45 µM (inactive)
same,GI50,OVCAR-3,13.1 µM (inactive)
same,GI50,RXF 393,17.2 µM (inactive)
same,GI50,EKVX,11.6 µM (inactive)
same,GI50,OVCAR-8,20.3 µM (inactive)
same,GI50,CAKI-1,5.33 µM (inactive)
same,GI50,UACC-257,7.98 µM (inactive)
same,GI50,UACC-62,15 µM (inactive)
same,GI50,NCI-H522,2.37 µM (inactive)
same,GI50,MOLT-4,2.63 µM (inactive)
same,GI50,Malme-3M,7.01 µM (inactive)
same,GI50,KM12,24.8 µM (inactive)
same,GI50,HOP-92,11.7 µM (inactive)
same,GI50,RPMI-8226,3.91 µM (inactive)
same,GI50,SNB-19,44.2 µM (inactive)
same,GI50,COLO 205,2.78 µM (inactive)
same,GI50,HCC 2998,11.8 µM (inactive)
same,GI50,NCI-H226,33.7 µM (inactive)
same,GI50,SF-295,99.3 µM (inactive)
same,GI50,IGROV-1,17.3 µM (inactive)
same,GI50,NCI/ADR-RES,19.7 µM (inactive)
same,GI50,Hs-578T,32.7 µM (inactive)
same,GI50,SK-MEL-2,22.3 µM (inactive)
same,GI50,A549,> 60.7 µM (inactive)
same,GI50,SK-OV-3,> 78 µM (inactive)
same,GI50,HCT-15,3.37 µM
same,GI50,SN12C,15.2 µM (inactive)
same,GI50,A498,23.8 µM (inactive)
same,GI50,HT-29,7.67 µM (inactive)
same,GI50,SF-268,19.3 µM (inactive)
same,GI50,ACHN,5.19 µM (inactive)
same,GI50,NCI-H460,19.6 µM (inactive)
same,GI50,786-0,2.84 µM (inactive)
same,GI50,U-251,23.3 µM (inactive)
same,GI50,MCF7,3.92 µM (inactive)
same,GI50,DU-145,15.2 µM (inactive)
same,GI50,MDA-MB-435,9.84 µM (inactive)
